Measurements: ChEMBL document CHEMBL6103652, “Niacin Ester Derivative of Brefeldin A as a Potential Dual-Target Arf1/BMX Inhibitor for Bladder Cancer” (J Nat Prod, 2025)

Legend:
[1] = Half life in Sprague-Dawley rat at 5 mg/kg, iv measured upto 24 hrs; format: ADME, organism-based; details: in vivo
[2] = Downregulation of p-STAT3 expression level in human T24 cells at 0.5 uM incubated for 24 hrs by Western blotting analysis relative to control; format: functional, T-24
L1210 = assay: Antiproliferative activity against mouse L1210 cells assessed as inhibition of cell proliferation measured after 72 hrs by MTT assay; format: functional, cell-based; details: L1210, 72 h
[3] = Downregulation of BMX expression level in human T24 cells at 0.5 uM incubated for 24 hrs by Western blotting analysis relative to control; format: functional, T-24
[4] = Toxicity in ICR mouse assessed as body weight change at 100 mg/kg, ip administered once for 14 days; format: organism-based; details: in vivo, 336 h, time 14 day
[5] = Cmax in Sprague-Dawley rat at 5 mg/kg, iv measured upto 24 hrs; format: ADME, organism-based; details: in vivo
T-24 [6] = assay: Induction of cell cycle arrest in human T24 cells assessed as accumulation of cells at G1 phase at 0.50 uM incubated for 24 hrs by RNase A/Propidium Iodide staining based flow cytometry analysis (reference value: 43.80 %); format: functional; details: dose 0.5 µM
T-24 [7] = assay: Inhibition of cell migration in human T24 cells at 0.50 uM incubated for 12 hrs by scratch assay (reference value: 66 %); format: functional
T-24 [8] = assay: Inhibition of cell migration in human T24 cells at 0.25 uM incubated for 12 hrs by scratch assay (reference value: 66 %); format: functional
T-24 [9] = assay: Inhibition of cell migration in human T24 cells at 0.25 uM incubated for 24 hrs by scratch assay (reference value: 88 %); format: functional; details: T-24, 24 h
T-24 [10] = assay: Antiproliferative activity against human T24 cells assessed as inhibition of cell proliferation measured after 72 hrs by MTT assay; format: functional, cell-based; details: T-24, 72 h
T24 = assay: Inhibition of AKT phosphorylation in human T24 cells incubated for 24 hrs by Western blotting analysis; format: cell-based; details: dose 0.13-0.5 µM
[11] = Downregulation of p-BMX expression level in human T24 cells at 0.5 uM incubated for 24 hrs by Western blotting analysis relative to control; format: functional, T-24
[12] = Downregulation of p-AKT expression level in human T24 cells at 0.13 to 0.50 uM incubated for 24 hrs by Western blotting analysis relative to control; format: functional, T-24; details: dose 0.13-0.5 µM, at 0.13 to 0.5 µM
Huh-7 = assay: Antiproliferative activity against human Huh-7 cells assessed as inhibition of cell proliferation measured after 72 hrs by MTT assay; format: functional, cell-based; details: Huh-7, 72 h
T-24 [13] = assay: Induction in apoptosis in human T24 cells assessed as late apoptotic cells at 0.25 uM incubated for 48 hrs by Annexin V-FITC staining based flow cytometry analysis (reference value: 4.78 %); format: functional
[14] = Clearance in Sprague-Dawley rat at 5 mg/kg, iv measured upto 24 hrs; format: ADME, organism-based; details: in vivo
T-24 [15] = assay: Induction in apoptosis in human T24 cells assessed as necrotic cells at 0.25 uM incubated for 48 hrs by Annexin V-FITC staining based flow cytometry analysis (reference value: 1.14 %); format: functional
T-24 [16] = assay: Induction in apoptosis in human T24 cells assessed as necrotic cells at 0.13 uM incubated for 48 hrs by Annexin V-FITC staining based flow cytometry analysis (reference value: 1.14 %); format: functional
T-24 [17] = assay: Inhibition of cell migration in human T24 cells at 0.125 uM incubated for 24 hrs by scratch assay (reference value: 88 %); format: functional; details: T-24, 24 h
T-24 [18] = assay: Induction in apoptosis in human T24 cells assessed as total apoptotic cells at 0.125 to 0.50 uM incubated for 48 hrs by Annexin V-FITC staining based flow cytometry analysis (reference value: 8 %); format: functional; details: dose 0.125-0.5 µM, at 0.125 to 0.5 µM
T-24 [19] = assay: Induction in apoptosis in human T24 cells assessed as early apoptotic cells at 0.25 uM incubated for 48 hrs by Annexin V-FITC staining based flow cytometry analysis (reference value: 3.64 %); format: functional
T-24 [20] = assay: Antiproliferative activity against human T24 cells assessed as inhibition of cell proliferation at 0.25 uM incubated for 120 hrs by MTT assay relative to control; format: functional
T-24 [21] = assay: Induction of cell cycle arrest in human T24 cells assessed as accumulation of cells at G1 phase at 0.25 uM incubated for 24 hrs by RNase A/Propidium Iodide staining based flow cytometry analysis (reference value: 43.80 %); format: functional
T-24 [22] = assay: Inhibition of cell migration in human T24 cells at 0.125 uM incubated for 12 hrs by scratch assay (reference value: 66 %); format: functional; details: T-24, 12 h
T-24 [23] = assay: Induction in apoptosis in human T24 cells assessed as viable cells at 0.5 uM incubated for 48 hrs by Annexin V-FITC staining based flow cytometry analysis (reference value: 90.44 %); format: functional; details: read-out: Activity
T-24 [24] = assay: Induction of cell cycle arrest in human T24 cells assessed as accumulation of cells at G2/M phase at 0.50 uM incubated for 24 hrs by RNase A/Propidium Iodide staining based flow cytometry analysis (reference value: 22.67 %); format: functional; details: dose 0.5 µM
[25] = Antitumor activity against mouse MB49 cells implanted in male C57BL/6 mouse assessed as reduction in CD133 expression level at 1 mg/kg,iv bid measured after 14 days by immunohistochemical analysis relative to control; format: functional; design: scale not given: the % may be the effect or the level left; details: time 14 day
T-24 [26] = assay: Induction in apoptosis in human T24 cells assessed as necrotic cells at 0.5 uM incubated for 48 hrs by Annexin V-FITC staining based flow cytometry analysis (reference value: 1.14 %); format: functional
[27] = Toxicity in ICR mouse assessed as body weight change at 688 mg/kg, IG administered once for 14 days; format: organism-based; details: in vivo, po, 336 h, time 14 day
T-24 [28] = assay: Induction in apoptosis in human T24 cells assessed as late apoptotic cells at 0.5 uM incubated for 48 hrs by Annexin V-FITC staining based flow cytometry analysis (reference value: 4.78 %); format: functional
[29] = Antitumor activity against mouse MB49 cells implanted in male C57BL/6 mouse assessed as reduction in Ki67 expression level at 1 mg/kg,iv bid measured after 14 days by immunohistochemical analysis relative to control; format: functional; design: scale not given: the % may be the effect or the level left; details: time 14 day
[30] = molecular target: Signal transducer and activator of transcription 3 (Homo sapiens) (UniProt P40763); assay: Inhibition of STAT3 phosphorylation in human T24 cells incubated for 24 hrs by Western blotting analysis; format: cell-based; details: dose 0.13-0.5 µM
[31] = Toxicity in male C57BL/6 mouse allografted with mouse MB49 cells assessed as tumor cell apoptosis at 1 mg/kg,iv bid measured after 14 days by H and E staining based analysis; format: organism-based; details: in vivo, 336 h, time 14 day
A549 = assay: Antiproliferative activity against human A549 cells assessed as inhibition of cell proliferation measured after 72 hrs by MTT assay; format: functional, cell-based; details: A549, 72 h
T-24 [32] = assay: Induction in apoptosis in human T24 cells assessed as early apoptotic cells at 0.5 uM incubated for 48 hrs by Annexin V-FITC staining based flow cytometry analysis (reference value: 3.64 %); format: functional

Chain of Signal transducer and activator of transcription 3 (Homo sapiens) (P40763 whole entry): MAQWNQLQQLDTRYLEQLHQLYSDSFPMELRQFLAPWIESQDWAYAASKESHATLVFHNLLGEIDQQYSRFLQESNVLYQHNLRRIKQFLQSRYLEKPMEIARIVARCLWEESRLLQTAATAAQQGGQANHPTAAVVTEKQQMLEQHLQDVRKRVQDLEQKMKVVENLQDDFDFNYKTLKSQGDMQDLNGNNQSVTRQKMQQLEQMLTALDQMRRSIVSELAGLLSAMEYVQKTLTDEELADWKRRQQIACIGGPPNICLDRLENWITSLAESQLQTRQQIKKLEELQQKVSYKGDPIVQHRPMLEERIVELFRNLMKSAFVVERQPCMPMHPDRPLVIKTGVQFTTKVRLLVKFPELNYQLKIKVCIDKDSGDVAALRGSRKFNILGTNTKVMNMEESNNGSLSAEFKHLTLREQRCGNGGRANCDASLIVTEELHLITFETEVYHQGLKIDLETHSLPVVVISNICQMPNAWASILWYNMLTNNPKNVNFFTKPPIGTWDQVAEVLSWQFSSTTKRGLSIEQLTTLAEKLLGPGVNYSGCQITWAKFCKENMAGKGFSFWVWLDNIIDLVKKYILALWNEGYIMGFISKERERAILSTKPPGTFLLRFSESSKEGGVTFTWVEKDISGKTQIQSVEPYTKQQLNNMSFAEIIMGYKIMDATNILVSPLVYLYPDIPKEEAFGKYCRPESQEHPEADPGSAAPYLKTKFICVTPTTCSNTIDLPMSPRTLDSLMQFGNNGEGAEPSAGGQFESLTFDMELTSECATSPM

With C[C@H]1CCC/C=C/[C@@H]2C[C@H](O)C[C@H]2[C@H](OC(=O)c2cccnc2)/C=C/C(=O)O1 the half-life [1] was 21.6 min, the Activity [2] was 55% and the IC50 (L1210) was 6180 nM. The Activity [3] was 35%, the Activity [4] was “Non-toxic” and the Cmax [5] was 1460 ng/mL. For the same compound, the Activity (T-24 [6]) was 63.82%, the wound closure at 0.5 µM (T-24 [7]) was 13% and the wound closure at 0.25 µM (T-24 [8]) was 17%. For the same compound, the wound closure at 0.25 µM (T-24 [9]) was 26%, the IC50 (T-24 [10]) was 220 nM and the inhibition (T24) was “Dose-dependent-effect”. The Activity [11] was 35%, the Activity [12] was 46% and the IC50 (Huh-7) was 1000 nM. The Activity (T-24 [13]) was 23.01%, the clearance [14] was 68 mL/min/kg and the Activity (T-24 [15]) was 3.33%. For the same compound, the Activity (T-24 [16]) was 0.91%, the wound closure at 0.125 µM (T-24 [17]) was 44% and the Activity (T-24 [18]) was 31%. The Activity (T-24 [19]) was 6.75%, the inhibition at 0.25 µM (T-24 [20]) was 91% and the Activity (T-24 [21]) was 48.88%. For the same compound, the wound closure at 0.125 µM (T-24 [22]) was 22%, the viability at 0.5 µM (T-24 [23]) was 65.6% and the Activity (T-24 [24]) was 14.82%. For the same compound, the Activity [25] was 61%, the Activity (T-24 [26]) was 3.49% and the Activity [27] was “Non-toxic”. The Activity (T-24 [28]) was 24.81%, the Activity [29] was 56% and the inhibition [30] was “Dose-dependent-effect”. The Activity [31] was “Non-toxic”, the IC50 (A549) was 230 nM and the Activity (T-24 [32]) was 6.11%.
